“Also recorded” adds a separate entry of the source. Like-named read-outs stand apart in the source and are kept apart here.
Key:
Assay type in all cases: physicochemical
[1] = pH solubility assessment in buffers at 37 °C; conditions: for μL for Dissolution at 37° C.: 100 mg solid
Protocol: CHP patterns 1 and 2 were prepared for pH solubility assessment as follows: • 100 mg of CHP pattern 1 and pattern 2 were each weighed out into 4, 5 mL screw top glass vials; • 100 μL of a selected buffer, pre-heated to 37° C., was added to each vial; • Samples were heated to 37° C. in an incubator shaker for ca. 10 minutes after each volume of buffer and checked for sample dissolution.

[2] = Dynamic vapor sorption (DVS) at 25 °C with post-DVS XRPD; conditions: for Post-DVS XRPD form: after DVS cycles at 25 °C
Protocol: DVS was carried out by placing an approximately 10-20 mg sample into a mesh vapour sorption balance pan and loaded into a DVS Intrinsic Dynamic Vapour Sorption Balance by Surface Measurement Systems. The sample was subjected to a ramping profile from 40 to 90% relative humidity (RH) at 10% increments, maintaining the sample at each step until a stable weight had been achieved (dm/dt 0.004%, minimum step length 30 minutes, maximum step length 500 minutes) at 25° C. After completion of the sorption cycle, the sample was dried using the same procedure to 0% RH and then a second sorption cycle back to 40% RH. Two cycles were performed. The weight change during the sorption/desorption cycles were plotted, allowing for the hygroscopic nature of the sample to be determined. XRPD analysis was then carried out on any solid retained.
Approximately, 10-20 mg of sample was placed into a mesh vapor sorption balance pan and loaded into a DVS Intrinsic dynamic vapor sorption balance by Surface Measurement Systems. The sample was subjected to a ramping profile from 40-90% relative humidity (RH) at 10% increments, maintaining the sample at each step until a stable weight had been achieved (dm/dt 0.004%, minimum step length 30 minutes, maximum step length 500 minutes) at 25° C. After completion of the sorption cycle, the sample was dried using the same procedure to 0% RH and then a second sorption cycle back to 40% RH. Two cycles were performed. The weight change during the sorption/desorption cycles were plotted, allowing for the hygroscopic nature of the sample to be determined. XRPD analysis was then carried out on any solid retained.

[3] = 8-week stability assessment at 40 °C/75% RH (XRPD, appearance, chiral HPLC); conditions: for Chiral Purity: chiral HPLC
Protocol: XRPD analysis was carried out on a PANalytical X'pert pro, scanning the samples between 3 and 35° 2θ. The material was gently ground to release any agglomerates and loaded onto a multi-well plate with Kapton or Mylar polymer film to support the sample. The multi-well plate was then placed into the diffractometer and analyzed using Cu K radiation (α1λ=1.54060 Å; α2=1.54443 Å; β=1.39225 Å; α1: α2 ratio=0.5) running in transmission mode (step size 0.0130° 2θ) using 40 kV/40 mA generator settings.
13. Chiral HPLC Column: Daicel IC (5.0 um, 250*4.6 mm) Column Temperature: 30° C. Injection Volume: 5 μL Flow Rate: 1.0 mL/min Mobile Phase A: 0.01% DEA in n-Hexane Mobile Phase B: EtOH:MeOH=2:8 (v/v) Diluent: Acetonitrile PDA Range: 220 nm Gradient program: […]

[4] = Drug substance stability study, 40±2 °C/75±5% RH (appearance, assay, impurities, chiral, water content, XRPD); conditions: for XRPD: reference standard of Pattern 2
Protocol: Packaging: Sample at each individual time point was packaged into double Antistatic LDPE bags both secured with cable ties. The sample packed for the same storage condition were stored together within a fiber drum, and closed with metal lid. All packages were prepared in the same fashion and labeled.
Time zero will be the day samples are placed on station. Initial testing results were from the release testing as long as samples are put on station within 30 days of the release test date, otherwise, initial was repeated.
Study Requirements: Total 22.5 g sample (Total 21 g sample if initial test is not needed): • 1.5 g for initial test if needed; • 21 g sample will be divided into 14 parts, 1.5 g for each parts, sample for each part should be weighed into double Antistatic LDPE bags both secured with cable ties. The stability samples for each storage condition are stored together within a fiber drum, closed with metal lid, and then stored at 25±2° C./60+5% RH (9 bags) and 40±2° C./75±5% RH (5 bags), respectively. Sampling Time:
Samples stored not more than 6 months were pulled on schedule date or within 2 business days after the scheduled date. Samples stored more than 6 months were pulled within +2 business days of the scheduled date.
Stability samples stored for one month to one year, and greater than one year were analyzed and completed within 10 and 20 business days after the samples pulled out from stability chamber, respectively. If time zero testing was performed, it was analyzed within 10 business days after study initiation.

[5] = 1-week stability assessment (40 °C/75% RH, 80 °C, ambient light; XRPD, HPLC purity)

μL for Dissolution at 37° C. ([1]; buffer pH 1): 300 µL
μL for Dissolution at 37° C. ([1]; buffer pH 4): 300 µL
μL for Dissolution at 37° C. ([1]; buffer pH 6.8): 300 µL
μL for Dissolution at 37° C. ([1]; buffer pH 7.2): 300 µL
solubility at 10 min ([1]; aqueous buffer, thermodynamic from solid, buffer pH 7.2, 37 °C, read-out: Approximate Solubility): 333 to 500 mg/mL
solubility at 10 min ([1]; buffer pH 1, 37 °C, pH 1, thermodynamic from solid, read-out: Approximate Solubility): 333 to 500 mg/mL
solubility at 10 min ([1]; buffer pH 4, 37 °C, pH 4, aqueous buffer, thermodynamic from solid, read-out: Approximate Solubility): 333 to 500 mg/mL
solubility at 10 min ([1]; buffer pH 6.8, 37 °C, pH 6.8, aqueous buffer, thermodynamic from solid, read-out: Approximate Solubility): 333 to 500 mg/mL
solubility at 10 min ([1]; buffer, aqueous buffer, thermodynamic from solid, all pH values tested (pH 1, 4, 6.8 and 7.2), 37 °C, read-out: Solubility (estimated)): 333 to 500 mg/mL
Post-DVS XRPD form [2]: no change in form
Post-DVS XRPD form ([2]; listed as CHP pattern 2): no change in form
DVS water loss in equivalents ([2]; below 10% RH, 25 °C): 0.5 equiv. water
DVS weight loss ([2]; below 10% RH, 25 °C): 3.5 wt. %
Appearance ([3]; 2-week): White
Appearance ([3]; 4-week): White
XRPD form after storage ([3]; 4 weeks, listed as CHP pattern 2): no change in form
Appearance ([3]; 8-week): White
XRPD form after storage ([3]; 8 weeks): no change in form
XRPD form after storage ([3]; 8 weeks, listed as CHP pattern 2): no change in form
XRPD form after storage ([3]; 8 weeks, listed as pattern 2 CHP): pattern 2 prevailed
Appearance ([3]; Initial): White
Chiral Purity ([3]; 2-week): >99.9%
Chiral Purity ([3]; 4-week): 99.9%
Chiral Purity ([3]; Initial): 99.9%
XRPD form after storage ([3]; two weeks (14 days), listed as CHP pattern 2): no change in form
Appearance ([4]; 40 ± 2° C./75 ± 5% RH, 1M): Off-white
Assay by HPLC ([4]; 40 ± 2° C./75 ± 5% RH, 1M): 103.2%
Chiral, HPLC: chiral impurity (D, D) optical isomer ([4]; 40 ± 2° C./75 ± 5% RH, 1M): (D, D):N, D
Chiral, HPLC: chiral impurity (D, L) optical isomer ([4]; 40 ± 2° C./75 ± 5% RH, 1M): (D, L):N, D
Chiral, HPLC: chiral impurity (L, D) optical isomer ([4]; 40 ± 2° C./75 ± 5% RH, 1M): (L, D):N, D
Chiral, HPLC: chiral purity ([4]; 40 ± 2° C./75 ± 5% RH, 1M): 100.0%
Impurities, HPLC: H-His-OH ([4]; 40 ± 2° C./75 ± 5% RH, 1M): 0.08%
Impurities, HPLC: each other individual impurity ([4]; 40 ± 2° C./75 ± 5% RH, 1M): individual < 0.05%
Water content (KF) ([4]; 40 ± 2° C./75 ± 5% RH, 1M): 7.2%
Appearance ([4]; 40 ± 2° C./75 ± 5% RH, 3M): Off-white
Assay by HPLC ([4]; 40 ± 2° C./75 ± 5% RH, 3M): 103.3%
Chiral, HPLC: chiral impurity (D, D) optical isomer ([4]; 40 ± 2° C./75 ± 5% RH, 3M): (D, D):N, D
Chiral, HPLC: chiral impurity (D, L) optical isomer ([4]; 40 ± 2° C./75 ± 5% RH, 3M): (D, L):N, D
Chiral, HPLC: chiral impurity (L, D) optical isomer ([4]; 40 ± 2° C./75 ± 5% RH, 3M): (L, D):N, D
Chiral, HPLC: chiral purity ([4]; 40 ± 2° C./75 ± 5% RH, 3M): 100.0%
Impurities, HPLC: H-His-OH ([4]; 40 ± 2° C./75 ± 5% RH, 3M): 0.07%
Impurities, HPLC: each other individual impurity ([4]; 40 ± 2° C./75 ± 5% RH, 3M): individual < 0.05%
Water content (KF) ([4]; 40 ± 2° C./75 ± 5% RH, 3M): 7.2%
Appearance ([4]; 40 ± 2° C./75 ± 5% RH, 6M): Off-white
Assay by HPLC ([4]; 40 ± 2° C./75 ± 5% RH, 6M): 102.4%
Chiral, HPLC: chiral impurity (D, D) optical isomer ([4]; 40 ± 2° C./75 ± 5% RH, 6M): (D, D):N, D
Chiral, HPLC: chiral impurity (D, L) optical isomer ([4]; 40 ± 2° C./75 ± 5% RH, 6M): (D, L):N, D
Chiral, HPLC: chiral impurity (L, D) optical isomer ([4]; 40 ± 2° C./75 ± 5% RH, 6M): (L, D):0.5%
Chiral, HPLC: chiral purity ([4]; 40 ± 2° C./75 ± 5% RH, 6M): 99.9%
Impurities, HPLC: C16081735-D-isomer ([4]; 40 ± 2° C./75 ± 5% RH, 6M): isomer: 0.05%
Impurities, HPLC: H-His-OH ([4]; 40 ± 2° C./75 ± 5% RH, 6M): 0.06%
Water content (KF) ([4]; 40 ± 2° C./75 ± 5% RH, 6M): 7.2%
XRPD ([4]; 40 ± 2° C./75 ± 5% RH, 6M): Conform to reference
Appearance ([4]; Initial (time zero)): Off-white
Assay by HPLC ([4]; Initial (time zero)): 103.4%
Chiral, HPLC: chiral impurity (D, D) optical isomer ([4]; Initial (time zero)): (D, D):N, D
Chiral, HPLC: chiral impurity (D, L) optical isomer ([4]; Initial (time zero)): (D, L):N, D
Chiral, HPLC: chiral impurity (L, D) optical isomer ([4]; Initial (time zero)): (L, D):N, D
Chiral, HPLC: chiral purity ([4]; Initial (time zero)): 100.0%
Impurities, HPLC: H-His-OH ([4]; Initial (time zero)): 0.07%
Impurities, HPLC: each other individual impurity ([4]; Initial (time zero)): individual < 0.03%
Water content (KF) ([4]; Initial (time zero)): 7.4%
XRPD ([4]; Initial (time zero)): Conform to reference
Purity after 1 week ([5]; HPLC, 40 °C/75% RH): 99.5%
Purity after 1 week ([5]; HPLC, 80 °C): 99.4%
Purity after 1 week ([5]; HPLC, Ambient): 99.5%
Purity of starting material ([5]; HPLC, before storage): 99.5%
SMILES: O=C1N[C@@H](Cc2cnc[nH]2)C(=O)N2CCC[C@@H]12 [Pattern 2, Pyrrolo [1,2-a]pyrazine-1,4-dione, hexahydro-3-(1H-imidazol-5-ylmethyl)-, hydrate (1:1), (3S, 8aS)-]
Change in HPLC purity after 7 days ([5]; all conditions (40 °C/75% RH, 80 °C, ambient light)): no drop in purity; also recorded: No change in purity

Source: patent US12534496B2, “Polymorphic forms of Cyclo (-His-Pro) and methods of use to treat kidney disease” (NovMetaPharma Co., Ltd., priority 2018, dated 2026)
